Laboratory results from the supplement of paper PMC10307832.

Experiments:
Test in all cases: relative viability (nuclei count vs DMSO), 5 days (fraction); higher = more cells survive
[1] = compound: O=C(O)c1ccc2c(c1)nc(Nc1cccc(Cl)c1)c1ccncc12 [Silmitasertib] + C[C@]1(O)C[C@@H](c2nc(-c3ccc4ccc(-c5ccccc5)nc4c3)c3c(N)nccn32)C1 [Linsitinib] (partner 1 µM)
Procedure, shortened: (§1)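 Each reported value is a median over duplicate plates. It expresses relative viability: treated-well nuclei count divided by vehicle-well nuclei count. Lung cancer cell lines in 1536-well plates were dosed by pin tool a day after seeding, alone with one drug or with a fixed anchor-drug dose plus five library-drug doses (not always all listed) in √10 steps, and nuclei were counted after 5 days.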

[2] = compound: O=C(O)c1ccc2c(c1)nc(Nc1cccc(Cl)c1)c1ccncc12 [Silmitasertib] + CC(C)C[C@H](NC(=O)[C@H](Cc1ccccc1)NC(=O)c1cnccn1)B(O)O [Bortezomib] (partner 0.002 µM)
Procedure, shortened: as §1

[3] = compound: O=C(O)c1ccc2c(c1)nc(Nc1cccc(Cl)c1)c1ccncc12 [Silmitasertib] + Nc1nc2[nH]cc(CCc3ccc(C(=O)N[C@@H](CCC(=O)O)C(=O)O)cc3)c2c(=O)[nH]1 [Pemetrexed] (partner 0.2 µM)
Procedure, shortened: as §1

[4] = compound: O=C(O)c1ccc2c(c1)nc(Nc1cccc(Cl)c1)c1ccncc12 [Silmitasertib] + N=C(N)NC(=N)NCCc1ccccc1 [Phenformin] (partner 250 µM)
Procedure, shortened: as §1

[5] = compound: O=C(O)c1ccc2c(c1)nc(Nc1cccc(Cl)c1)c1ccncc12 [Silmitasertib] + Cc1cc(Nc2cc(N3CCN(C)CC3)nc(Sc3ccc(NC(=O)C4CC4)cc3)n2)n[nH]1 [Tozasertib] (partner 0.1 µM)
Procedure, shortened: as §1

Row | Cell Line | relative viability ([1]; first compound 0.04 µM) | relative viability ([1]; first compound 0.4 µM) | relative viability ([1]; first compound 1.265 µM) | relative viability ([1]; first compound 4 µM) | relative viability ([2]; first compound 0.04 µM) | relative viability ([2]; first compound 0.4 µM) | relative viability ([2]; first compound 1.265 µM) | relative viability ([2]; first compound 4 µM) | relative viability ([3]; first compound 0.04 µM) | relative viability ([3]; first compound 0.4 µM) | relative viability ([3]; first compound 1.265 µM) | relative viability ([3]; first compound 4 µM) | relative viability ([4]; first compound 0.04 µM) | relative viability ([4]; first compound 0.4 µM) | relative viability ([4]; first compound 1.265 µM) | relative viability ([4]; first compound 4 µM) | relative viability ([5]; first compound 0.04 µM) | relative viability ([5]; first compound 0.4 µM) | relative viability ([5]; first compound 1.265 µM) | relative viability ([5]; first compound 4 µM)
1 | LU99A | 0.574 | 0.632 | 0.396 | 0.361 | 1.22 | 1.18 | 0.899 | 0.438 | 0.187 | 0.168 | 0.148 | 0.168 | 0.883 | 0.883 | 0.848 | 0.518 | 0.316 | 0.29 | 0.263 | 0.256
2 | NCI-H3122 | 0.957 | 0.953 | 0.948 | 1.15 | 1.11 | 0.935 | 1.03 | 1.12 | 0.203 | 0.189 | 0.185 | 0.194 | 0.416 | 0.365 | 0.433 | 0.47 | 0.427 | 0.41 | 0.334 | 0.305
3 | NCI-H2347 | 1.01 | 0.952 | 0.967 | 0.848 | 1.27 | 0.593 | 0.881 | 0.652 | 0.44 |  | 0.363 | 0.42 | 1.22 |  | 0.452 | 0.301 | 0.663 |  | 0.56 | 0.419
4 | HCC-827 | 0.967 |  | 1.18 | 1.18 | 1.04 |  | 1.2 | 0.89 | 0.282 |  | 0.282 | 0.273 | 0.436 |  | 0.413 | 0.376 | 0.454 |  | 0.398 | 0.471
5 | NCI-H1666 | 0.919 | 0.571 | 0.682 | 0.536 | 1.01 | 0.702 | 0.5 | 0.468 | 0.89 | 0.795 | 0.72 | 0.63 | 0.571 | 0.582 | 0.607 | 0.511 | 0.734 | 0.626 | 0.543 | 0.446
6 | 201T | 1.03 | 1.02 | 0.889 | 1.01 | 1.03 | 1.1 | 1.16 | 1.2 | 0.381 | 0.229 | 0.341 | 0.381 | 0.421 | 0.426 | 0.469 | 0.449 | 0.955 | 0.818 | 1.04 | 1.05
7 | PC-3 [JPC-3] | 0.98 | 0.964 | 1.03 | 0.986 | 0.892 | 0.699 | 0.891 | 0.826 | 1.18 | 0.919 | 1.15 | 0.6 | 0.475 | 0.398 | 0.468 | 0.424 | 0.971 | 0.69 | 0.86 | 0.835
8 | NCI-H2405 | 1.16 | 0.783 | 0.856 | 0.887 | 0.936 | 0.792 | 0.874 | 0.904 | 1.12 | 1 | 0.73 | 0.86 | 0.435 | 0.34 | 0.34 | 0.301 | 0.772 | 0.526 | 0.652 | 0.665
9 | LXF-289 | 0.91 |  | 1.08 | 1.06 | 1.02 |  | 1.05 | 0.979 | 0.968 |  | 0.8 | 0.824 | 0.53 |  | 0.58 | 0.382 | 0.212 |  | 0.186 | 0.182
10 | EKVX | 1.15 | 0.869 | 0.711 | 0.677 | 1.12 | 0.686 | 0.928 | 0.59 | 0.394 |  | 0.383 | 0.338 | 0.22 | 0.167 | 0.185 | 0.203 | 0.434 | 0.25 | 0.295 | 0.405
11 | A-427 | 1.11 |  | 1.28 | 1.04 | 1.1 |  | 1.24 | 0.703 | 1.04 | 0.826 | 1.05 | 0.669 | 0.365 |  | 0.297 | 0.156 | 0.19 |  | 0.132 | 0.15
12 | LCLC-97TM1 | 0.178 |  | 0.172 | 0.14 | 1.13 |  | 0.521 | 0.208 | 0.187 |  | 0.186 | 0.144 | 0.477 |  | 0.328 | 0.295 | 0.247 |  | 0.168 | 0.162
13 | NCI-H1993 | 0.597 | 0.747 | 0.695 | 0.758 | 1.33 | 0.857 | 0.995 | 0.745 | 0.616 | 0.524 | 0.598 | 0.505 | 0.547 | 0.447 | 0.543 | 0.566 | 0.622 | 0.523 | 0.522 | 0.53
14 | NCI-H460 | 0.779 | 0.84 | 0.782 | 0.899 | 1.22 | 0.967 | 1.09 | 1.15 | 0.0675 | 0.0541 | 0.0651 | 0.0575 | 0.523 | 0.525 | 0.583 | 0.414 | 0.556 | 0.119 | 0.405 | 0.523
15 | NCI-H1975 | 1.07 | 0.842 | 0.878 | 0.686 | 0.349 | 0.283 | 0.423 | 0.331 | 0.294 |  | 0.287 | 0.219 | 0.443 |  | 0.382 | 0.394 | 0.942 |  | 0.514 | 0.308
16 | RERF-LC-KJ | 0.858 | 0.876 | 0.689 | 0.672 | 1.15 | 0.95 | 0.779 | 0.574 | 0.488 | 0.445 | 0.439 | 0.342 | 0.407 | 0.378 | 0.31 | 0.268 | 0.546 | 0.531 | 0.382 | 0.248
17 | NCI-H322M | 0.868 | 0.809 | 0.62 | 0.453 | 1.25 | 0.881 | 0.947 | 0.804 | 0.666 | 0.536 | 0.595 | 0.482 | 0.783 | 0.761 | 0.603 | 0.384 | 0.51 | 0.505 | 0.377 | 0.342
